Reference: US20100003679A1, “ASSESSMENT OF CELLULAR COMPOSITION AND FRACTIONAL VIABILITY AND USES THEREOF” (University of Miami, priority 2006, published 2010)

Tests used:
Assay type in all cases: cell-based
[1] = test system: β-cells (NG bright) of human islets; assay: Simultaneous β-cell/PDC viability by FACS after noxious stimuli: β-cell subset; settings: human islet cells, 24 h; SNAP 0.5 mM; H2O2 200 μM; IL-1β 50 U/ml + TNF-α 1,000 U/ml + IFN-γ 1,000 U/ml; vs absence of stimulus
Procedure: (§1) Assessment of PDC-specific viability: Single cell suspensions were incubated for 30 min at 37° C. in phosphate buffered saline (PBS) without Ca^2+ and Mg^2+ with Newport Green PDX acetoxymethylether (NG; […]) and tetramethylrhodamineethylester (TMRE; 100 ng/ml; both from Molecular Probes). Cells were incubated with anti-CA19-9 antibody (1:100) for 15 min followed by goat anti-mouse antibody (Alexa-647). After washing, cells were stained with 7-aminoactinomycin D (7-AAD; Molecular Probes), a marker of cell death. Cell suspensions were analyzed (minimum 3.0 104 events) using a FACScan cytometer with the CellQuest-pro software (Becton Dickinson, Mountain View, Calif.). We have evaluated apoptosis selectively in the NG^bright and CA19-9+ cells according to the scheme in FIGS. 19A-E. After counting, dead cells (7-AAD+) were excluded from further analysis, live β-cells (NG^bright) and PDC (CA19-9^+) were analyzed for mitochondrial membrane potential (TMRE), which allows discriminating between healthy (TMRE^+) and apoptotic (TMRE^−) cells. […]

[2] = test system: PDC (CA19-9+ ductal cells) of human islet preparations; assay: Simultaneous β-cell/PDC viability by FACS after noxious stimuli: ductal cell subset; settings: 24 h, SNAP 0.5 mM, H2O2 200 μM, IL-1β 50 U/ml + TNF-α 1,000 U/ml + IFN-γ 1,000 U/ml, vs absence of stimulus
Procedure: as §1

[3] = test system: β-cells (NG bright) of human islets; assay: β-cell apoptosis after delivery of noxious stimuli (TMRE staining in NG bright subset, FACS); settings: SNP 0.5 mM 18 h, H2O2 200 μM 18 h, IL-1β 50 U/ml alone or with TNF-α 1000 U/ml and IFN-γ 1000 U/ml 24 h, vs absence of stimulus
Procedure: Determination of fractional β-cell viability. For assessment of apoptosis, single cell suspensions were incubated with 1 μM Newport Green PDX acetoxymethylether (NG; Molecular Probes) and 100 ng/ml of tetramethylrhodamine ethyl ester (TMRE; Molecular Probes) for 30 min at 37° C. in PBS without Ca^2+ and Mg^2+. Newport Green allows for the definition of cell subsets according to zinc content (18). TMRE selectively binds to mitochondrial membranes, allowing for detection of apoptosis (that results in decreased staining) (19-20). After washing, cells were stained with 7-aminoactinomycin D (7-AAD; Molecular Probes), which binds to DNA when cell membrane permeability is altered after cell death. Cell suspensions were analyzed (minimum 3.0×10^4 events) using a FACScan cytometer (Becton Dickinson, Mountain View, Calif.) with the CellQuest software.
Delivery of pro-apoptotic stimuli to islet cells: Islets were treated with selected compounds to induce apoptosis. The nitric oxide (NO) donor sodium nitroprusside (Baxter Healthcare Corporation, Deerfield, Ill.) was used at 0.5 mM for 18 hours. Hydrogen peroxide (H2O2; Sigma) was used at 200 μM for 18 hours. IL-1-β (50 U/ml) alone or in combination with TNF-α (1000 U/ml) and IFN-γ (1000 U/ml) was used for 24 hours. […]

Row | Molecule | apoptosis by TMRE staining in β-cell subset [1] | apoptosis by TMRE staining in ductal cell (PDC) subset [2] | percentage of apoptotic β-cells (TMRE−, NG bright) [3]
1 | CC(=O)NC(C(=O)O)C(C)(C)SN=O (racemic) [SNAP, S-Nitroso-N-acetyl-DL-penicillamine] | increased apoptosis | increased apoptosis | –
2 | IL-1β: cytokine used as pro-apoptotic stimulus on islets | – | – | increase in the percentage of apoptotic β-cells
3 | OO [H2O2, Hydrogen peroxide] | increased apoptosis | increased apoptosis | increase in the percentage of apoptotic β-cells
